Data set [1] concerns H1975 lung cancer cells. The data set is described as follows: MTT assay, growth of H1975 lung cancer cells. Format: cell-based. The following applies: Homo sapiens, NCI-H1975, MTT. For orientation: Tetrazolium assays rely on reduction of a dye to a coloured formazan, in cell work by metabolically active cells.
The test system of data set [2] is MDA-MB231 breast cancer cells. The data set is described as follows: MTT assay, growth of MDA-MB231 breast cancer cells. Type of data set: cell-based. The conditions noted are these: Homo sapiens, MDA-MB-231, MDA-MB231 triple-negative breast cancer cell line, Table 3. As for the experimental part:
The inhibitory effect of the exemplary compounds against MDA-MB231 breast cancer cell and H1975 lung cancer cell was evaluated. The cytotoxic activity of test compounds was examined by performing a MTT assay.

[3] abbreviates: H1975 lung cancer cell line, Table 3, read-out: IC50 H1975.

SMILES strings stand for the structures. Where two headings read alike, the source gives them in different places.

In general, melting point refers to the temperature, or range, at which the solid turns liquid. The term IC50 denotes the concentration needed to halve the response being measured. In turn, `CCOc1ccc(-c2nc(C#N)c3nc(N(C(C)=O)C(C)=O)n(-c4ccccc4OC)c3n2)cc1` [Compound 35a, N-Acetyl-N-[6-cyano-2-(4-ethoxyphenyl)-9-(2-methoxyphenyl)purin-8-yl]acetamide] had a melting point of 210 to 212 °C. Moreover, in data set [1] (setting [3]), the IC50 worked out at 14.7 µM. This compound also displayed an IC50 in data set [2] of 11.9 µM.

Compound `CCOc1ccc(-c2nc(C(=N)NOC(=O)Oc3ccccc3)c3[nH]c(=O)n(-c4ccccc4OC)c3n2)cc1` [Compound 22b, 2-(4-Ethoxyphenyl)-9-(2-methoxyphenyl)-8-oxopurine-6-[N-(phenoxycarbonyl)oxy]carboximidamide] had a melting point of 209 to 211 °C. For the same compound, in data set [1] (setting [3]), the IC50 was determined as 3.1 µM. This compound came in with an IC50 in data set [2] of 3.9 µM.

With `CCOc1ccc(-c2nc(C(=N)NOC)c3c(n2)n(-c2ccccc2OC)c(=O)n3C)cc1` [Compound 21b, 2-(4-Ethoxyphenyl)-9-(2-methoxyphenyl)-7-methyl-8-oxopurine-6-(N-methoxy)carboximidamide], the results for the IC50 in data set [1] (setting [3]) and in data set [2] were 42 µM and 56 µM, respectively.

The compound `CCOc1ccc(-c2nc(C(=O)NN)c3[nH]c(=O)n(-c4ccccc4OC)c3n2)cc1` [Compound 20a, 2-(4-Ethoxyphenyl)-9-(2-methoxyphenyl)-8-oxopurine-6-carbohydrazide] came in with a melting point of 273.7 to 274.5 °C. In addition, in data set [1] (setting [3]), the IC50 amounted to 60.9 µM. The compound further showed a 50% inhibitory concentration (IC50) in data set [2] of 65.3 µM.

Compound `CCOc1ccc(-c2nc(C#N)c3[nH]c(=O)n(-c4ccc(C(=O)OC)cc4)c3n2)cc1` [Compound 12b, 2-(4-Ethoxyphenyl)-9-(4-methoxycarbonylphenyl)-8-oxopurine-6-carbonitrile] came in with a melting point of 311.1 to 312.2 °C. Moreover, the IC50 in data set [1] (setting [3]) amounted to 9.8 µM. Moreover, in data set [2], half-maximal inhibition (IC50) was put at 3.9 µM.

The compound `CCOc1ccc(-c2nc(C#N)c3[nH]c(=O)n(-c4cccc([N+](=O)[O-])c4)c3n2)cc1` [Compound 12e, 2-(4-Ethoxyphenyl)-9-(3-nitrophenyl)-8-oxopurine-6-carbonitrile] showed a melting point of 296.1 to 297.8 °C. Besides, the IC50 in data set [1] (setting [3]) stood at 4.1 µM. This compound also returned an IC50 in data set [2] of 3.5 µM.

Regarding `CCOc1ccc(-c2nc(-c3noc(C)n3)c3[nH]c(=O)n(-c4ccccc4OC)c3n2)cc1` [Compound 24a, 2-(4-Ethoxyphenyl)-9-(2-methoxyphenyl)-6-(5-methyl-1,2,4-oxadiazol-3-yl)purin-8-one], the melting point lay within 291 to 293 °C. Further, the IC50 in data set [1] (setting [3]) stood at 17 µM. Besides, it took 64 µM to reach half-maximal inhibition in data set [2] (IC50).

For the compound `CCOc1ccc(-c2nc(C#N)c3nc(OC(=O)Oc4ccccc4)n(-c4ccccc4OC)c3n2)cc1` [Compound 17d, 6-Cyano-2-(4-ethoxyphenyl)-9-(2-methoxyphenyl)purin-8-yl phenyl carbonate], the melting point fell in the range of 247 to 249 °C. Also, in data set [1] (setting [3]), the IC50 stood at 25.1 ± 0.4 µM. The compound also yielded an IC50 in data set [2] of 16.9 ± 11.5 µM.

On to `CCOc1ccc(-c2nc(C(=O)NOC)c3[nH]c(=O)n(-c4ccccc4OC)c3n2)cc1` [Compound 19b, 2-(4-Ethoxyphenyl)-9-(2-methoxyphenyl)-8-oxopurine-6-(N-methoxy)carb oxamide], for which the melting point was 260.5 to 261.6 °C. Besides, the 50% inhibitory concentration (IC50) in data set [1] (setting [3]) came to 0.3 µM. For the same compound, 2.8 µM corresponded to half-maximal inhibition in data set [2] (IC50).

In the case of `CCOc1ccc(-c2nc(C#N)c3nc(OC(=O)OCc4ccccc4)n(-c4ccccc4OC)c3n2)cc1` [Compound 17c, Benzyl 6-cyano-2-(4-ethoxyphenyl)-9-(2-methoxyphenyl)purin-8-yl carbonate], the melting point lay within 228 to 230 °C. Further, the IC50 in data set [1] (setting [3]) turned out to be 34 µM. Moreover, the IC50 in data set [2] was 48.6 µM.

Compound `CCOc1ccc(-c2nc(C#N)c3[nH]c(=O)n(-c4ccc([N+](=O)[O-])cc4)c3n2)cc1` [Compound 12d, 2-(4-Ethoxyphenyl)-9-(4-nitrophenyl)-8-oxopurine-6-carbonitrile] showed a melting point of 293.2 to 294.8 °C. In addition, the IC50 in data set [1] (setting [3]) turned out to be 6.2 µM. In data set [2], this compound had an IC50 of 2.6 µM.

The compound `C=CCn1c(=O)n(-c2ccccc2OC)c2nc(-c3ccc(OCC)cc3)nc(C(=N)NOC(=O)Oc3ccccc3)c21` [Compound 23a, 7-Allyl-2-(4-ethoxyphenyl)-9-(2-methoxyphenyl)-8-oxopurine-6-[N-(phenoxycarbonyl)oxy]carboximidamide] returned a melting point of 83 to 85 °C. Further, in data set [1] (setting [3]), the IC50 stood at 51.1 µM. In addition, in data set [2], half-maximal inhibition (IC50) was put at 48.1 µM.

Take `CCOc1ccc(-c2nc(C(=N)NO)c3c(n2)n(-c2ccccc2OC)c(=O)n3C)cc1` [Compound 21a, 2-(4-Ethoxyphenyl)-9-(2-methoxyphenyl)-7-methyl-8-oxopurine-6-(N-hydroxy)carboximidamide]: the melting point was in the range of 229 to 231 °C. In addition, the IC50 in data set [1] (setting [3]) turned out to be 30 µM. This compound also had an IC50 in data set [2] of 87 µM.

`CCCCNC(=N)c1nc(-c2ccc(OCC)cc2)nc2c1[nH]c(=O)n2-c1ccccc1OC` [Compound 13a, 2-(4-Ethoxyphenyl)-9-(2-methoxyphenyl)-8-oxopurine-6-(N-butyl)carboximidamide]: the melting point fell in the range of 375 to 377 °C. Besides, the IC50 in data set [1] (setting [3]) stood at 79 µM. In data set [2], this compound registered an IC50 of 11.6 µM.

`CCOc1ccc(-c2nc(C(N)=O)c3[nH]c(=O)n(-c4ccc([N+](=O)[O-])cc4)c3n2)cc1` [Compound 5k, 2-(4-Ethoxyphenyl)-9-(4-nitrophenyl)-8-oxopurine-6-carboxamide]: the melting point lay within 307.6 to 309 °C. The IC50 in data set [1] (setting [3]) is 7 µM. For the same compound, the IC50 in data set [2] stood at 26 µM.

For the compound `COc1ccc(-c2nc(C#N)c3[nH]c(=O)n(-c4ccccc4OC)c3n2)cc1O` [Compound 12f, 2-(3-Hydroxy-4-methoxyphenyl)-9-(2-methoxyphenyl)-8-oxopurine-6-carbonitrile], the melting point is 294 to 296 °C. The IC50 in data set [1] (H1975, Table 2, read-out: IC50 against the growth of H1975 lung cancer cells) worked out at 25.8 µM. Moreover, in data set [1] (setting [3]), the IC50 stood at 25.8 µM.

In the case of `CCOc1ccc(-c2nc(C(=O)O)c3nc(S)n(-c4ccccc4)c3n2)cc1` [Compound 29a, 2-(4-Ethoxyphenyl)-8-mercapto-9-phenylpurine-6-carboxylic acid], the melting point was 320 °C (dec.). The IC50 in data set [1] (setting [3]) was found to be 43.6 µM. The same compound came in with an IC50 in data set [2] of 91 µM.

`CCOc1ccc(-c2nc(C#N)c3nc(OC(=O)OC(C)(C)C)n(-c4ccccc4OC)c3n2)cc1` [Compound 17b, Tert-butyl 6-cyano-2-(4-ethoxyphenyl)-9-(2-methoxyphenyl)purin-8-yl carbonate] returned a melting point of 278 to 280 °C. For the same compound, in data set [1] (setting [3]), the IC50 was found to be 13 µM. The IC50 in data set [2] was 22 µM.

In the case of `CCOc1ccc(-c2nc(C#N)c3nc(Cl)n(-c4ccccc4OC)c3n2)cc1` [Compound 31a, 8-Chloro-2-(4-ethoxyphenyl)-9-(2-methoxyphenyl)purine-6-carbonitrile], the melting point was in the range of 215 to 217 °C. Further, the IC50 in data set [1] (setting [3]) came out at 0.7 µM. The IC50 in data set [2] was determined as 1.6 µM.

For `CCOc1ccc(-c2nc(C(=O)NN(C)C)c3[nH]c(=O)n(-c4ccccc4OC)c3n2)cc1` [Compound 20b, 2-(4-Ethoxyphenyl)-9-(2-methoxyphenyl)-8-oxopurine-6-(N′,N′-dimethyl)carbohydrazide], the melting point lay within 279.6 to 281 °C. In data set [1] (setting [3]), the IC50 was found to be 6.9 µM. Moreover, the IC50 in data set [2] is 47.2 µM.

For the compound `CCOc1ccc(-c2nc(C(=N)NO)c3nc(N)n(-c4ccccc4OC)c3n2)cc1` [Compound 36a, 8-Amino-2-(4-ethoxyphenyl)-9-(2-methoxyphenyl)purine-6-(N-hydroxy)carboximidamide], the melting point lay within 245 to 247 °C. Besides, the IC50 in data set [1] (setting [3]) was found to be 11.9 µM. In data set [2], this compound displayed an IC50 of 15.4 µM.

Compound `CCOc1ccc(-c2nc(C(=N)NOC(=O)OCc3ccccc3)c3[nH]c(=O)n(-c4ccccc4OC)c3n2)cc1` [Compound 22a, 2-(4-Ethoxyphenyl)-9-(2-methoxyphenyl)-8-oxopurine-6-[N-(benzyloxycarbonyl)oxy]carboximidamide] registered a melting point of 246 to 248 °C. Moreover, in data set [1] (setting [3]), the IC50 is 3.1 µM. The compound also displayed an IC50 in data set [2] of 3.9 µM.

The values above are taken from patent publication US10765681B2 (Academia Sinica, priority 2016, dated 2020).
